Results taken from US8415469B2, “Compounds and methods for kinase modulation, and indications therefor” (Plexxikon Inc., priority 2005, dated 2013).

What was measured:
Assay type in all cases: biochemical
FGFR1 = target: T1, FGFR1 (Homo sapiens, UniProt P11362, C488A/C584S); assay: AlphaScreen kinase assay, FGFR1; settings: read-out: IC50, activity toward kinase FGFR
T1 construct: P1351.pET N6 BI-PTP FGFR A458-E765-X C488A, C584S; made in house; host or cells: E. coli (PTP1B co-expressed)

B-Raf V600E = target: T2, B-Raf V600E (Homo sapiens, UniProt P15056, V600E); assay: AlphaScreen kinase assay, B-Raf V600E; settings: read-out: IC50, activity toward kinase B-Raf V600E
T2 construct: P4254. pFastBacBD-CDC37 BRAF D437-K722-X, V600E; His6 with pFastBac HT leader (TEV site) (N); made in house; host or cells: Sf9 (baculovirus; chaperone CDC37 co-expressed)

Ret = target: T3, Ret (Homo sapiens, UniProt P07949); assay: AlphaScreen kinase assay, Ret; settings: read-out: IC50, activity toward kinase Ret
T3 construct: P1378.pET-SF BI-PTP RET H661-R1012 HIS; made in house
T3 sequence (P07949 with tags, fused parts or gaps): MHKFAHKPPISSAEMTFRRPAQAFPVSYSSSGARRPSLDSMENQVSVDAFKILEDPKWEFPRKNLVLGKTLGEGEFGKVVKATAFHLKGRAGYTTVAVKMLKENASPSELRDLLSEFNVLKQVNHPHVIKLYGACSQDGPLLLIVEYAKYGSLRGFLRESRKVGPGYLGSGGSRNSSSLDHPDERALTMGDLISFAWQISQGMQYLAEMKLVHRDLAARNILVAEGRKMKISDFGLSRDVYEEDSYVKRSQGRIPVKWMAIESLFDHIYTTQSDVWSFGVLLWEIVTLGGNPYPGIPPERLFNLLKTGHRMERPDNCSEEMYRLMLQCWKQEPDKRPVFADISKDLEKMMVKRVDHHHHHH

T1 sequence (P11362 458-765 C488A/C584S): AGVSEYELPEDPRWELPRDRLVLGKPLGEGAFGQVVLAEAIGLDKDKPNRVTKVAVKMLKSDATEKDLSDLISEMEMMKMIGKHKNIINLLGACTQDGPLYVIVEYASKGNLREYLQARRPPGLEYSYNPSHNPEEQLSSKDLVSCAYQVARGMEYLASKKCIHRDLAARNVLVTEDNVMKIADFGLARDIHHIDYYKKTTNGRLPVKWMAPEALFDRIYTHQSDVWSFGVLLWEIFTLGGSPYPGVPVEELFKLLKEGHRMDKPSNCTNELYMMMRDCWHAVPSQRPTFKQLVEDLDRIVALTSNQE
T2 sequence (P15056 with tags, fused parts or gaps V600E): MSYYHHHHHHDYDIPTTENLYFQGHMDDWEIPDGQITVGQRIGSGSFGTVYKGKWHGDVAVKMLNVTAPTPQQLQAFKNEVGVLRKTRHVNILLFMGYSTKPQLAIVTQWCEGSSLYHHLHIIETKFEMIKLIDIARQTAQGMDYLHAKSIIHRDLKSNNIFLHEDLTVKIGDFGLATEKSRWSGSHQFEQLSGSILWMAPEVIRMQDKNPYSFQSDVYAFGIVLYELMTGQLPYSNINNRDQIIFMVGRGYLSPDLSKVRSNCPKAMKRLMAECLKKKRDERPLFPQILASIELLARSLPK

**Q.** Which results are given for `O=C(c1c(F)cccc1F)c1c[nH]c2nccc(-c3cc(F)cc(F)c3)c12` [Compound P-0344]?
**A.** IC50 (FGFR1): ≤ 10 µM; IC50 (B-Raf V600E): ≤ 10 µM; IC50 (Ret): ≤ 10 µM

**Q.** For `Cc1cc(C(=O)c2c[nH]c3nccc(-c4cccnc4)c23)no1` [Compound P-1029], which IC50 (B-Raf V600E) is on record?
**A.** ≤ 10 µM

**Q.** What about the IC50 (Ret) of the same molecule?
**A.** ≤ 10 µM

**Q.** Which results are given for `COc1cccc(C(=O)c2c[nH]c3nccc(-c4cccc(S(C)(=O)=O)c4)c23)c1` [Compound P-1125]?
**A.** IC50 (FGFR1): ≤ 10 µM; IC50 (Ret): ≤ 10 µM

**Q.** Which IC50 (FGFR1) does the source give for `COc1ccc(-c2ccnc3[nH]cc(C(=O)c4cccc(O)c4)c23)cn1` [Compound P-0520] here?
**A.** ≤ 10 µM

**Q.** And the IC50 (Ret)?
**A.** ≤ 10 µM

**Q.** `COc1cccc(C(=O)c2c[nH]c3nccc(-c4cccnc4)c23)c1` [Compound P-1117] was tested. Which IC50 (B-Raf V600E) did it give?
**A.** ≤ 10 µM

**Q.** And the IC50 (Ret)?
**A.** ≤ 10 µM

**Q.** What does the source list for `O=C(c1ccccc1F)c1c[nH]c2nccc(-c3ccc(Cl)cc3)c12` [Compound P-0472]?
**A.** IC50 (B-Raf V600E): ≤ 10 µM; IC50 (Ret): ≤ 10 µM

**Q.** For `COc1ccc(-c2ccnc3[nH]cc(C(=O)c4cc(C)on4)c23)cn1` [Compound P-1113], which IC50 (B-Raf V600E) is on record?
**A.** ≤ 10 µM

**Q.** What about the IC50 (Ret) of the same molecule?
**A.** ≤ 10 µM

**Q.** Which IC50 (B-Raf V600E) does the source give for `O=C(c1cccc(Cl)c1Cl)c1c[nH]c2nccc(-c3ccsc3)c12` [Compound P-0347] here?
**A.** ≤ 10 µM

**Q.** What about the IC50 (Ret) of the same molecule?
**A.** ≤ 10 µM

**Q.** Which results are given for `COc1cccc(C(=O)c2c[nH]c3nccc(-c4cccc(/C=C/C(=O)O)c4)c23)c1` [Compound P-1066]?
**A.** IC50 (FGFR1): ≤ 10 µM; IC50 (Ret): ≤ 10 µM

**Q.** With `O=C(c1ccccc1)c1c[nH]c2nccc([N+](=O)[O-])c12` [Compound P-0246] as the molecule, how does the IC50 (FGFR1) read?
**A.** ≤ 10 µM

**Q.** And the IC50 (B-Raf V600E)?
**A.** ≤ 10 µM

**Q.** And the IC50 (Ret)?
**A.** ≤ 10 µM

**Q.** With `NC(=O)c1ccc(-c2cnc3[nH]cc(C(=O)c4cccc(Cl)c4Cl)c3c2)cc1` [Compound P-0977] as the molecule, how does the IC50 (FGFR1) read?
**A.** ≤ 10 µM

**Q.** And the IC50 (Ret)?
**A.** ≤ 10 µM

**Q.** For `COc1cccc(C(=O)c2c[nH]c3nccc(-c4ccsc4)c23)c1` [Compound P-1188], which IC50 (FGFR1) is on record?
**A.** ≤ 10 µM

**Q.** And the IC50 (Ret)?
**A.** ≤ 10 µM

**Q.** With `CS(=O)(=O)Nc1cccc(-c2ccnc3[nH]cc(C(=O)c4cccc(Cl)c4Cl)c23)c1` [Compound P-0231] as the molecule, how does the IC50 (B-Raf V600E) read?
**A.** ≤ 10 µM

**Q.** And the IC50 (Ret)?
**A.** ≤ 10 µM

**Q.** Which results are given for `CC(=O)Nc1cccc(-c2ccnc3[nH]cc(C(=O)c4cc(C)on4)c23)c1` [Compound P-1085]?
**A.** IC50 (B-Raf V600E): ≤ 10 µM; IC50 (Ret): ≤ 10 µM

**Q.** What does the source list for `Cc1cc(C(=O)c2c[nH]c3nccc(-c4ccsc4)c23)no1` [Compound P-1026]?
**A.** IC50 (B-Raf V600E): ≤ 10 µM; IC50 (Ret): ≤ 10 µM

**Q.** What does the source list for `Cc1ccc(F)cc1C(=O)c1c[nH]c2nccc(-c3ccc(C(N)=O)cc3)c12` [Compound P-1024]?
**A.** IC50 (B-Raf V600E): ≤ 10 µM; IC50 (Ret): ≤ 10 µM

**Q.** For `COc1cccc(C(=O)c2c[nH]c3nccc(-c4cccc(NC(C)=O)c4)c23)c1` [Compound P-0363], which IC50 (FGFR1) is on record?
**A.** ≤ 10 µM

**Q.** And the IC50 (Ret)?
**A.** ≤ 10 µM

**Q.** For `Cc1cc(C(=O)c2c[nH]c3nccc(-c4cccc(S(C)(=O)=O)c4)c23)no1` [Compound P-1031], which IC50 (B-Raf V600E) is on record?
**A.** ≤ 10 µM

**Q.** And the IC50 (Ret)?
**A.** ≤ 10 µM

**Q.** Which results are given for `O=C(c1cc(F)ccc1F)c1c[nH]c2nccc(-c3ccc(Cl)cc3)c12` [Compound P-0638]?
**A.** IC50 (B-Raf V600E): ≤ 10 µM; IC50 (Ret): ≤ 10 µM

**Q.** With `O=C(c1cc(F)ccc1F)c1c[nH]c2ncc(-c3cccnc3)cc12` [Compound P-1111] as the molecule, how does the IC50 (FGFR1) read?
**A.** ≤ 10 µM

**Q.** And the IC50 (Ret)?
**A.** ≤ 10 µM

**Q.** `Cc1ccc(F)cc1C(=O)c1c[nH]c2nccc(-c3cccc(C(N)=O)c3)c12` [Compound P-0976] was tested. Which IC50 (FGFR1) did it give?
**A.** ≤ 10 µM

**Q.** And the IC50 (B-Raf V600E)?
**A.** ≤ 10 µM

**Q.** What about the IC50 (Ret) of the same molecule?
**A.** ≤ 10 µM

**Q.** What does the source list for `Cc1cc(C(=O)c2c[nH]c3ncc(-c4cccnc4)cc23)no1` [Compound P-0826]?
**A.** IC50 (FGFR1): ≤ 10 µM; IC50 (Ret): ≤ 10 µM

**Q.** What does the source list for `Cc1cc(C(=O)c2c[nH]c3nccc(-c4ccc(C(N)=O)cc4)c23)no1` [Compound P-1007]?
**A.** IC50 (B-Raf V600E): ≤ 10 µM; IC50 (Ret): ≤ 10 µM

**Q.** What does the source list for `Cc1cc(C(=O)c2c[nH]c3nccc(-c4cccc(NS(C)(=O)=O)c4)c23)no1` [Compound P-1025]?
**A.** IC50 (B-Raf V600E): ≤ 10 µM; IC50 (Ret): ≤ 10 µM

**Q.** Which IC50 (FGFR1) does the source give for `O=C(c1cccc(Cl)c1Cl)c1c[nH]c2nccc(Cl)c12` [Compound P-0232] here?
**A.** ≤ 10 µM

**Q.** And the IC50 (Ret)?
**A.** ≤ 10 µM
